The values below come from US7115662B2, “Certain 5-alkyl-2-arylaminophenylacetic acids and derivatives” (Novartis AG, priority 1997, dated 2006).

The test system of one data set is intestinal permeability. The data set can be described thus: intestinal tolerability (51Cr-EDTA intestinal permeability). Type of data set: in vivo. The conditions noted are these: rat; 30 mg/kg p.o.; 51Cr-EDTA urinary excretion over 24 h. As for the experimental part: Intestinal tolerability can be determined by measuring the effect on intestinal permeability. Lack of increase in permeability is indicative of intestinal tolerability. The method used is a modification of a procedure by Davies, et al., Pharm. Res. 1994; 11:1652–1656 and is based on the fact that excretion of orally administered ^51Cr-EDTA, a marker of small intestinal permeability, is increased by NSAIDs. Groups of rats (≧12/group) are administered a single, oral dose of test compound or vehicle by gastric intubation. Immediately following compound dose, each rat is administered ^51Cr-EDTA (5 μCi/rat) by gastric intubation. The rats are placed in individual metabolic cages and given food and water ad libitum. Urine is collected over a 24 hour period. Twenty-four hours after administration of ^51Cr-EDTA the rats are sacrificed. To quantify compound effect on intestinal permeability, the excreted ^51Cr-EDTA measured in the urine of compound treated rats is compared to the excreted ^51Cr-EDTA measured in the urine of vehicle treated rats. Relative permeability is determined by calculating the activity present in each urine sample as a percent of the administered dose after correcting for background radiation.

In another data set the target is T1, cyclooxygenase-2 (COX-2) (Homo sapiens, UniProt P35354).
T1 construct: endogenous in cells; host or cells: primary human skin fibroblasts induced with IL-1
T1 sequence (P35354 18-604): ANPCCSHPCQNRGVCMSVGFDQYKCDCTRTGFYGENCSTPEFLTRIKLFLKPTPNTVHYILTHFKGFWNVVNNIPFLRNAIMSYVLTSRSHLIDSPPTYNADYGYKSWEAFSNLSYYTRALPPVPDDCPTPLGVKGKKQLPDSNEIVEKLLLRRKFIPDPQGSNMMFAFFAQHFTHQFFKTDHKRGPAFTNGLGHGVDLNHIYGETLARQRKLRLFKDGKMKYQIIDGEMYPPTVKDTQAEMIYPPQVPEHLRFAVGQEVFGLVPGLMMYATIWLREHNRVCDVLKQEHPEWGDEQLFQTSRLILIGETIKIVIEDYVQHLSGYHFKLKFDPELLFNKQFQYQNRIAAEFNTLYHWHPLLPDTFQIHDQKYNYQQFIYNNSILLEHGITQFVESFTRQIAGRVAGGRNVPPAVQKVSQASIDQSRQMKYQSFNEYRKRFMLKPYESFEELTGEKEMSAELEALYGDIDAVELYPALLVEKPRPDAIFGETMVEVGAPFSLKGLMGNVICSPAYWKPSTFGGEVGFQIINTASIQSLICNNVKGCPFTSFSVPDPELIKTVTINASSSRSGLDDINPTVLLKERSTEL
The data set can be described thus: cellular COX-2 inhibition assay (IL-1 induced human fibroblasts, PGE2 radioimmunoassay). Type of data set: cell-based. The conditions noted are these: primary human fibroblasts induced with IL-1, 40 μM arachidonic acid. As for the experimental part:
(§1) Cyclooxygenase inhibition is determined in vitro using cellular assays for inhibition of both cyclooxygenase-1 and cyclooxygenase-2.
(§2) The cellular assays for testing cyclooxygenase inhibitors are based on the fact that the cyclooxygenase enzyme (prostaglandin H synthase) catalyzes the rate limiting step in prostaglandin synthesis from arachidonic acid. Two enzymes mediate the reaction: COX-1 is a constitutive form of the enzyme whereas COX-2 is induced in response to various growth factors and cytokines. Cell lines have been established which express one form of the enzyme: a human skin fibroblast line which can be induced with IL-1 to synthesize COX-2, and the kidney epithelial cell line 293 which has been stably transfected to constitutively express COX-1. Both isoforms metabolize arachidonic acid into the stable metabolite prostaglandin E2. Arachidonic acid can be added exogenously to increase output to easily measurable levels. The levels of prostaglandin E2 in the extracellular medium are assayed by radioimmunoassay as a measure of enzyme activity. The relative activities of each isoform are compared to assess compound selectivity.
(§3) In vitro cyclooxygenase-1 (COX-1) and cyclooxygenase-2 (COX-2) inhibition is determined in the cell-based assays in order to assess the in vitro activity and selectivity for COX-2 inhibition, using a prostaglandin E2 radioimmunoassay. The cells utilized are primary human fibroblasts induced with interleukin-1 to produce COX-2, and the human kidney epithelial cell line 293 stably transfected to produce COX-1 constitutively. Cells are plated out into well plates in which the assay is performed. Fibroblasts are stimulated to synthesize COX-2 by treatment overnight with IL-1; the 293 cells require no induction. Both cell lines are pre-treated with compound dilutions for 15 minutes at 37° C., then 40 μM arachidonic acid is added as exogenous substrate for the production of PGE2, which is measured in supernatant by radioimmunoassay. […]

The test system of data set [1] is pain threshold in yeast-inflamed paw. The data set can be described thus: Randall-Selitto paw pressure assay. Format: in vivo, rat. The conditions noted are these: male Wistar rats; 10 mg/kg orally; 1 h after dosing. As for the experimental part:
The analgesic activity of the compounds of the invention is determined using the well-known Randall-Selitto assay.
The Randall-Selitto paw pressure assay measures antinociception (analgesic activity) in inflamed tissue by comparing the pressure threshold in the inflamed paw of the rat after oral administration of test drug with that in the inflamed paw of rats administered corn starch vehicle orally.
Groups of 10 male Wistar rats weighing 40–50 gms are fasted overnight prior to testing. Hyperalgesia is induced by the injection of 0.1 ml of a 20% suspension of Brewer's yeast with a 26 gauge needle into the subplantar region of the right hindpaw. The left paw is not injected and is used as the control paw for determination of hyperalgesia. Vehicle (Fortified corn starch suspension 3%) at 10 ml/kg, reference compound (diclofenac is run in every experiment at the same dose as test compounds) and test compounds at different doses suspended in vehicle at 10 ml/kg are administered orally 2 hours after the yeast injection. The threshold for paw withdrawal is quantified with a Basile Analgesy-meter 1 hour after oral administration of test compounds. The nociceptive threshold is defined as the force in grams at which the rat withdraws its foot or vocalizes. Either vocalization or foot withdrawal is recorded as a response.
The data are analyzed by comparing the mean pain threshold of the corn starch vehicle-treated group for the inflamed and non-inflamed paws to that of individual drug-treated rats. Individual rats in the drug-treated groups and positive control (diclofenac) group are called reactors if the individual pain threshold in each paw exceeds the control group mean threshold by two standard deviations of that mean. The mean pain thresholds of the inflamed paw in the control group are compared to the individual pain thresholds of the inflamed paw in the test drug group. The non-inflamed control mean pressure threshold is compared to the non-inflamed individual pressure thresholds in the test groups. Results are expressed as number of reactors in each test group (n=10) for inflamed and non-inflamed paws. Percentages are calculated by dividing number of reactors by total number of rats used for a compound.

A further data set relates to gross gastric ulceration. In words: gastric tolerability assay. Type of data set: in vivo. The conditions noted are these: rat; 100 mg/kg p.o.; four hours after administration. As to the method: The gastric tolerability assay is used to assess gross ulceration in the rat, measured four hours after oral administration of the test compound. The test is carried out as follows: Rats are fasted overnight, administered compound in fortified cornstarch vehicle by gavage, and sacrificed by carbon dioxide inhalation four hours later. The stomachs are removed and gross gastric lesions counted and measured to give the total lesion length per rat. Each experiment contains the following groups (5–6 rats per group): vehicle control, test compounds, and diclofenac as a reference compound. Data are calculated as the mean number of ulcers in a group, the mean length of ulcers (mm) in the group and as the ulcer index (UI). UI=mean length of ulcers in a group×ulcer incidence where ulcer incidence is the fraction of animals in the group with lesions (100% incidence is 1).

A further data set concerns the target T2, cyclooxygenase-1 (COX-1) (Homo sapiens, UniProt P23219).
T2 construct: expressed in transfected cells; host or cells: human kidney epithelial cell line 293, stably transfected
The data set can be described thus: cellular COX-1 inhibition assay (293 cells stably transfected with COX-1, PGE2 radioimmunoassay). Format: cell-based. The conditions noted are these: 293 cells expressing COX-1; 30 μM compound. As to the method:
as §1, §2, §3

T2 sequence (P23219 24-599, species assumed): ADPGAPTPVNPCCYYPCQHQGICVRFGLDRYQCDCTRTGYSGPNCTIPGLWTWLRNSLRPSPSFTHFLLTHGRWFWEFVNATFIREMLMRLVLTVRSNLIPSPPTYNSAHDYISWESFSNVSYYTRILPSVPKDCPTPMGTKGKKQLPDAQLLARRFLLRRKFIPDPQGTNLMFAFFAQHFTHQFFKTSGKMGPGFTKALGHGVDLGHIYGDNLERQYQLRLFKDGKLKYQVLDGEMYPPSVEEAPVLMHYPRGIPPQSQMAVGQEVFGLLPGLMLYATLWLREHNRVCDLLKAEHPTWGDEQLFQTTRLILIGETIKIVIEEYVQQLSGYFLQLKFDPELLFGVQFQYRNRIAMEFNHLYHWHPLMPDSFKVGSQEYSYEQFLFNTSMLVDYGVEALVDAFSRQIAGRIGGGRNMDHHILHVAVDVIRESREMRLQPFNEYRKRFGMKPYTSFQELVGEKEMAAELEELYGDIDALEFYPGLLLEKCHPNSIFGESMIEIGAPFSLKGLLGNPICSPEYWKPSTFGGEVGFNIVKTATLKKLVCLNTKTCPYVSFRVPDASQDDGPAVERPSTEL

`CCc1ccc(Nc2c(F)c(F)cc(F)c2F)c(CC(=O)O)c1` [3(a), 5-ethyl-2-(2′, 3′,5′,6′-tetrafluoroanilino)phenylacetic acid]: the “effect on intestinal permeability” value in the data set with intestinal permeability is reported as “no effect or only a minimal effect”. Further, the half-inhibitory concentration (IC50) (as a rule, the concentration that inhibits the measured activity by half) against cyclooxygenase-2 (COX-2) is about 7 nM. Besides, in data set [1], the “pain threshold in the inflamed paw” value is “increase the pain threshold” and the “pain threshold in the non-inflamed paw” value is listed as “no threshold elevation”. Moreover, in the data set with gross gastric ulceration, the gastric ulcerogenic effect entry is “essentially free of any gastric ulcerogenic effect”. Further, the “COX-1 inhibition at 30 μM” value at cyclooxygenase-1 (COX-1) was “no significant COX-1 inhibition”.

On to `Cc1ccc(Nc2c(F)cccc2Cl)c(CC(=O)O)c1` [1(d), 5-methyl-2-(2′-chloro-6′-fluoroanilino)phenylacetic acid], for which the “effect on intestinal permeability” value with intestinal permeability is on record as “no effect or only a minimal effect”. At cyclooxygenase-2 (COX-2), this molecule returned a 50% inhibitory concentration (IC50) of about 130 nM. In addition, in data set [1], the “pain threshold in the inflamed paw” value is recorded as “increase the pain threshold” and the “pain threshold in the non-inflamed paw” value is “no threshold elevation”. Further, the gastric ulcerogenic effect entry in the data set with gross gastric ulceration is reported as “essentially free of any gastric ulcerogenic effect”. Also, on cyclooxygenase-1 (COX-1), the “COX-1 inhibition at 30 μM” value is listed as “no significant COX-1 inhibition”.

Turning to `Cc1ccc(Nc2c(F)cc(F)cc2Cl)c(CC(=O)O)c1` [Example 1(g), 5-methyl-2-(2′,4′-difluoro-6′-chloroanilino)phenylacetic acid], the melting point – broadly, the temperature of the solid-liquid transition – lay in the range of 157 to 159 °C. The “effect on intestinal permeability” value in the data set on intestinal permeability is “no effect or only a minimal effect”. The concentration for half-maximal inhibition (IC50) against cyclooxygenase-2 (COX-2) was about 250 nM. For the same molecule, in data set [1], the “pain threshold in the inflamed paw” value was “increase the pain threshold” and the “pain threshold in the non-inflamed paw” value is “no threshold elevation”. The gastric ulcerogenic effect result with gross gastric ulceration was “essentially free of any gastric ulcerogenic effect”. The “COX-1 inhibition at 30 μM” value on cyclooxygenase-1 (COX-1) is “no significant COX-1 inhibition”.
